System: Pseudomonas aeruginosa PAM 1723 strain highly expressing the drug efflux pump
Test: Effect of combinational use with an antimicrobial agent on multidrug resistant Pseudomonas aeruginosa (broth culture, transmittance and turbidity readout)
Type: cell-based
Settings: minimum concentration of compound required to enhance antibacterial activity, MHB, 1 × 10^6 CFU/ml; for Combination with AZT: azthreonam (AZT) at 1/8 or less of the minimum inhibitory concentration, combinational use for 18 hours; for Combination with LVFX: levofloxacin (LVFX) at 1/8 or less of the minimum inhibitory concentration, combinational use for 7.5 hours
Source text: Test Example 1: Effect of combinational use with an antimicrobial agent on multidrug resistant Pseudomonas aeruginosa
As multidrug resistant Pseudomonas aeruginosa, Pseudomonas aeruginosa PAM 1723 strain highly expressing the drug efflux pump was used. As antimicrobial drugs for the combinational uses, levofloxacin (LVFX) as a quinolone antibacterial agent and azthreonam (AZT) as a monobactam antibiotic were used.
Each of the compounds shown in Table 1 with Example No., which falls within the compounds of the present invention, was subjected to the measurement of its minimum concentration (µg/ml) that was required to enhance the antibacterial activity of the antibacterial agent when the test compound was used in combination with the antibacterial drug applied at a concentration of 1/4, or 1/8 or less of the minimum inhibitory concentration against the PAM 1723 strain. […] As for levofloxacin, effects were indicated as combinational uses for 7.5 hours, and as for azthreonam, effects as combinational uses for 18 hours was indicated. The Müller-Hinton broth (MHB, Difco) was used as a medium, and the inoculated amount of the bacteria was 1 × 10^6 CFU/ml. Effects were determined by optically measuring the transmittance of the bacterial culture with time, and visually observing the turbidity of the medium.

SMILES: O=C(Cc1ccccc1C(=O)O)Nc1cccc(/C=C/c2nc(-c3ccccc3)cs2)c1 [Example 1, 2-(2-Oxo-2-3-[(E)-2-(4-phenyl-1,3-thiazol-2-yl)-1-ethenyl]anilinoethyl)-benzoic acid]
- Combination with AZT: 1.25 µg/mL
- Combination with LVFX: <=0.63 µg/ml

SMILES: O=C(Cc1ccccc1C(=O)O)Nc1cccc(OCc2ccc3ccccc3n2)c1 [Example 2, 2-{2-Oxo-2-[3-(2-quinolylmethoxy)anilino]ethyl}benzoic acid]
- Combination with AZT: 5 µg/mL
- Combination with LVFX: 20 µg/mL

SMILES: CC(C)c1nc(/C=C/c2cccc(NC(=O)Cc3ccccc3C(=O)O)c2)sc1Cl [Example 3, 2-(2-3-[(E)-2-(4-Isopropyl-5-chloro-1,3-thiazol-2-yl)-1-ethenyl]anilino-2-oxoethyl)benzoic acid]
- Combination with LVFX: <=2.5 µg/ml

SMILES: O=C(Cc1ccccc1C(=O)O)Nc1cccc(/C=C/c2ccc(-c3ccccc3)o2)c1 [Example 4, 2-[2-Oxo-2-{3-[(E)-(5-phenyl-2-furyl)-1-ethenyl]anilino}ethyl]benzoic acid]
- Combination with AZT: 2.5 µg/mL
- Combination with LVFX: 10 µg/mL

SMILES: CC(C)c1nc(/C=C/c2cccc(NC(=O)Cc3ccccc3C(=O)O)c2)sc1N [Example 5, 2-{2-[3-((E)-2-{5-Amino-4-isopropyl-1,3-thiazol-2-yl}-1-ethenyl)amino]-2-oxoethyl}benzoic acid]
- Combination with AZT: 20 µg/mL
- Combination with LVFX: 10 µg/mL

SMILES: O=C(Cc1ccccc1C(=O)O)Nc1cccc(/C=C/c2nc3cccnc3s2)c1 [Example 6, 2-(2-Oxo-2-{3-[(E)-2-(pyrido[3,2-d][1,3]thiazol-2-yl)-1-ethenyl]anilino}ethyl)benzoic acid]
- Combination with AZT: 5 µg/mL
- Combination with LVFX: 20 µg/mL

SMILES: O=C(Cc1ccccc1C(=O)O)Nc1cccc(/C=C/c2nc3ccccc3o2)c1 [Example 7, 2-(2-3-[(E)-2-(1,3-Benzoxazol-2-yl)-1-ethenyl]anilino-2-oxoethyl)benzoic acid]
- Combination with AZT: 5 µg/mL
- Combination with LVFX: 2.5 µg/mL

SMILES: O=C(Cc1ccccc1C(=O)O)Nc1cccc(/C=C/c2nc(-c3ccncc3)cs2)c1 [Example 8, 2-[2-Oxo-2-(3-(E)-2-[4-(4-pyridyl)-1,3-thiazol-2-yl]-1-ethylanilino)ethyl]-benzoic acid]
- Combination with AZT: 2.5 µg/mL
- Combination with LVFX: 0.63 µg/mL

SMILES: CC(C)c1cccc(COc2cccc(NC(=O)Cc3ccccc3C(=O)O)c2)n1 [Example 9, 2-(2-3-[(6-Isopropyl-2-pyridyl)methoxy]anilino-2-oxoethyl)benzoic acid]
- Combination with AZT: 2.5 µg/mL
- Combination with LVFX: 0.63 µg/mL

SMILES: O=C(Cc1ccccc1C(=O)O)Nc1cccc(CCc2nc(-c3ccccc3)cs2)c1 [Example 10, 2-(2-Oxo-2-{3-[2-(4-phenyl-1,3-thiazol-2-yl)ethyl]anilino}ethyl)benzoic acid]
- Combination with AZT: 2.5 µg/mL
- Combination with LVFX: 20 µg/mL

SMILES: O=C(Cc1ccccc1C(=O)O)Nc1cccc(C2CC2c2nc(-c3ccccc3)cs2)c1 (centres unmarked) [Example 11, 2-(2-Oxo-2-{3-[2-(4-phenyl-1,3-thiazol-2-yl)cyclopropyl]anilino}ethyl)benzoic acid]
- Combination with AZT: 40 µg/mL
- Combination with LVFX: >40 µg/mL

SMILES: O=C(Cc1ccccc1C(=O)O)Nc1cccc(C(=O)Nc2nc(-c3ccccc3)cs2)c1 [Example 12, 2-(2-Oxo-2-(3-((4-phenyl-1,3-thiazol-2-yl)amino)carbonylanilino)ethyl)-benzoic acid]
- Combination with AZT: 20 µg/mL
- Combination with LVFX: >40 µg/mL

SMILES: CC(C)c1nsc(COc2cc(NC(=O)Cc3ccccc3C(=O)O)c(F)cc2F)n1 [Example 13, 2-(2-2,4-Difluoro-5-[(3-isopropyl-1,2,4-thiadiazol-5-yl)methoxy]anilino-2-oxoethyl)benzoic acid]
- Combination with AZT: 1.25 µg/mL
- Combination with LVFX: <=0.63 µg/ml

SMILES: CC(C)c1csc(COc2cc(N)cc(NC(=O)Cc3ccccc3C(=O)O)c2)n1 [Example 14, 2-(3-Amino-5-((4-isopropyl-1,3-thiazol-2-yl)methoxy)anilino-2-oxoethyl)-benzoic acid]
- Combination with AZT: 10 µg/mL
- Combination with LVFX: 10 µg/mL

SMILES: CC(C)c1csc(/C=C/c2cncc(NC(=O)[C@H]3OC(C)(C)O[C@@H]3C(=O)O)c2)n1 [Example 15, (4S,5S)-5-[(5-[(E)-2-(4-Isopropyl-1,3-thiazol-2-yl)-1-ethenyl]-3-pyridyl-amino)carbonyl]-2,2-dimethyl-1,3-dioxolane-4-carboxylic acid]
- Combination with AZT: 40 µg/mL
- Combination with LVFX: 20 µg/mL

SMILES: COC(=O)c1cc(NC(=O)Cc2ccccc2C(=O)O)cc(OCc2nc(C(C)C)cs2)c1 [Example 16, 2-(3-((4-Isopropyl-1,3-thiazol-2-yl)methoxy)-5-(methoxycarbonyl)anilino)-2-oxoethylbenzoic acid]
- Combination with AZT: 160 µg/mL
- Combination with LVFX: 160 µg/mL

SMILES: CC(C)c1csc(/C=C/c2cncc(NC(=O)Cc3ccccc3C(=O)O)c2)n1 [Example 17, 2-[2-(5-[(E)-2-(4-Isopropyl-1,3-thiazol-2-yl)-1-ethenyl]-3-pyridylamino)-2-oxoethyl]benzoic acid]
- Combination with AZT: 1.25 µg/mL
- Combination with LVFX: 0.63 µg/mL

SMILES: CC(C)c1csc(/C=C/c2cccc(NC(=O)Cc3ccccc3C(=O)O)n2)n1 [Example 18, 2-[2-(6-[(E)-2-(4-Isopropyl-1,3-thiazol-2-yl)-1-ethenyl]-2-pyridylamino)-2-oxoethyl]benzoic acid]
- Combination with AZT: 20 µg/mL
- Combination with LVFX: 10 µg/mL

— patent EP1652839A2, “Drug efflux pump inhibitor” (priority 1999, dated 2001)
